Measurements reported in patent US20180200257A1, “METHODS FOR THE TREATMENT OF INFLAMMATORY DISORDERS” (Galapagos NV, priority 2015, published 2018).

How the values were obtained:
[1] = tested on: Subjects With Active Crohn's Disease With Evidence of Mucosal Ulceration; test: Study 3 - Fecal calprotectin levels; type: in vivo, human; details: 200 mg; week 10; LOCF
From the text: Double-Blind, Randomized, Placebo-Controlled, Multi-Centre Study to Investigate the Efficacy and Safety of Compound 1 in Subjects With Active Crohn's Disease With Evidence of Mucosal Ulceration.
This is a double-blind, randomized, placebo-controlled, multi-centre Phase 2 study to investigate the efficacy and safety of Compound 1 administered once daily for the treatment of active CD with evidence of mucosal ulceration. The pharmacokinetics (including a PK substudy) and pharmacodynamics of Compound 1 and metabolite in CD will also be characterised.
A total of 180 eligible subjects will be randomized to receive Compound 1 or placebo in addition to their stable background treatment (eg, corticosteroids, aminosalicylates, or CD-related antibiotics). The study will consist of 2 parts, with total treatment duration of 20 weeks. Randomization in Part 1 will be stratified according the subject's previous anti-TNF exposure/response, CRP level at Screening, and oral corticosteroid use at visit Day −1.
After the first 10 weeks of treatment in Part 1, patients will be re-randomized for Part 2 as shown in the diagram below and will be stratified according to the subject's clinical response, previous anti-TNF exposure/response, and oral corticosteroid use at visit Day -1.
Fecal calprotectin is a protein belonging to the S100 family and occurring in large amounts in neutrophil granulocytes, where it accounts for 5% of total proteins and 60% of cytoplasm proteins. When inflammatory processes occur, calprotectin is released due to the degranulation of neutrophil granulocytes.
In bowel inflammation, calprotectin may be detected in the stool. The fecal levels provide direct information about the inflammation and is determined using a Calprest® enzyme immunoassay diagnostic kit (Eurospital Spa—Via Flavia 122-34147 Trieste—Italy; ref 9031).

[2] = tested on: Subjects With Active Crohn's Disease With Evidence of Mucosal Ulceration; test: Study 3 - CRP levels (pharmacodynamics); type: in vivo, human; details: 200 mg; week 10; LOCF
From the text: Double-Blind, Randomized, Placebo-Controlled, Multi-Centre Study to Investigate the Efficacy and Safety of Compound 1 in Subjects With Active Crohn's Disease With Evidence of Mucosal Ulceration. This is a double-blind, randomized, placebo-controlled, multi-centre Phase 2 study to investigate the efficacy and safety of Compound 1 administered once daily for the treatment of active CD with evidence of mucosal ulceration. The pharmacokinetics (including a PK substudy) and pharmacodynamics of Compound 1 and metabolite in CD will also be characterised. A total of 180 eligible subjects will be randomized to receive Compound 1 or placebo in addition to their stable background treatment (eg, corticosteroids, aminosalicylates, or CD-related antibiotics). The study will consist of 2 parts, with total treatment duration of 20 weeks. Randomization in Part 1 will be stratified according the subject's previous anti-TNF exposure/response, CRP level at Screening, and oral corticosteroid use at visit Day −1. After the first 10 weeks of treatment in Part 1, patients will be re-randomized for Part 2 as shown in the diagram below and will be stratified according to the subject's clinical response, previous anti-TNF exposure/response, and oral corticosteroid use at visit Day -1. [table] CRP determination is available at Quest Diagnostics, Clinical Trials, Quest House, 125-135 Staines Road, Hounslow, Middlesex, TW3 3JB, United Kingdom under Catalogue n#86140. The determination of CRP is made using Immunoturbidimetric assay for the in vitro quantitative determination of CRP in human serum and plasma on Roche/Hitachi cobas c systems, wherein human CRP agglutinates with latex particles coated with monoclonal anti-CRP antibodies. The aggregates are determined turbidimetrically (Eda et al., 1998; Price et al., 1987). Human serum and plasma samples CRP determination was done on a Roche/Hitachi Cobas c 301 c 501/502 system which automatically calculate the analyte concentration of each sample. Samples containing precipitates are centrifuged before performing the assay. CRP levels are determined as previously described in section 3.6

Q: Which results are given for `O=C(Nc1nc2cccc(-c3ccc(CN4CCS(=O)(=O)CC4)cc3)n2n1)C1CC1` [Compound 1, cyclopropanecarboxylic acid {5-[4-(1,1-dioxo-thiomorpholin-4-ylmethyl)-phenyl]-[1,2,4]triazolo[1,5-a]pyridin-2-yl}-amide]?
A: Fecal calprotectectin normalizing high to normal (<50 mg/kg), % subjects normalizing [1]: 12%; Fecal calprotectectin normalizing high to normal (>250 mg/kg to ≤250 mg/kg), % subjects normalizing [1]: 44%; Fecal calprotectin mean, % CFB [1]: 73%; Fecal calprotectin mean, CFB [1]: -86.7 mg/kg; Fecal calprotectin median, % CFB [1]: −29%; Fecal calprotectin median, CFB [1]: -75.5 mg/kg; Serum CRP mean, % CFB [2]: 53%; Serum CRP mean, CFB [2]: -1.0 mg/L; Serum CRP median, % CFB [2]: −10%; Serum CRP median, CFB [2]: -0.4 mg/L; Serum CRP normalizing high to normal (<0.80 mg/dL), % subjects normalizing [2]: 27%
